Consider five compounds from patent US8618086B2, “Compositions and methods for treating hair loss using C16-C20 aromatic tetrahydro prostaglandins” (Duke University, priority 2000, dated 2013).

The structures appear in SMILES notation.

The test system of assay [1] is C3H mice (conversion from telogen to anagen, skin color grade). As to the kind of experiment: Telogen Conversion Assay. In kind it is in vivo. To be noted: topical; for Average Grades, 23 Days: visual skin color grade 0 (whitish) to 4 (dark blue, full anagen), average of 7 mice after 23 days. The method, then:
PGF's are tested for their potential to grow hair using the Telogen Conversion Assay. The Telogen Conversion Assay measures the potential of a PGF to convert mice in the resting stage of the hair growth cycle (“telogen”), to the growth stage of the hair growth cycle (“anagen”).
Without intending to be limited by theory, there are three principal phases of the hair growth cycle: anagen, catagen, and telogen. It is believed that there is a longer telogen period in C3H mice (Harlan Sprague Dawley, Inc., Indianapolis, Ind.) from approximately 40 days of age until about 75 days of age, when hair growth is synchronized. It is believed that after 75 days of age, hair growth is no longer synchronized. Wherein about 40 day-old mice with dark fur (brown or black) are used in hair growth experiments, melanogenesis occurs along with hair (fur) growth wherein the topical application of hair growth inducers are evaluated. The Telogen Conversion Assay herein is used to screen PGF's for potential hair growth by measuring melanogenesis.
Three groups of 44 day-old C3H mice are used: a vehicle control group, a positive control group, and a test PGF group, wherein the test PGF group is administered a PGF used in the method of this invention. The length of the assay is 24 days with 15 treatment days (wherein the treatment days occur Mondays through Fridays). Day 1 is the first day of treatment. Typical dosage concentrations are set forth in Table 1, however the skilled artisan will readily understand that such concentrations may be modified.
The mice are treated topically Monday through Friday on their lower back (base of tail to the lower rib). A pipettor and tip are used to deliver 400 μL to each mouse's back. The 400 μL application is applied slowly while moving hair on the mouse to allow the application to reach the skin.
While each treatment is being applied to the mouse topically, a visual grade of from 0 to 4 will be given to the skin color in the application area of each animal. As a mouse converts from telogen to anagen, its skin color will become more bluish-black.

In assay [2] the target is T1, hFP receptor (hFP membrane from transfected COS-7 cells) (Homo sapiens, UniProt P43088).
T1 construct: expressed in transfected cells; host or cells: COS-7 cells (transient transfection, LipofectAMINE); membrane preparation
The assay can be described thus: Radioligand Binding Assay. To be noted: competition with (3H) PGF2 on hFP membrane; read-out: IC50 the PGF. The method, then: IC50 of a PGF can be determined relative to PGF2α using the Radioligand Binding Assay. As a control, the IC50 for PGF2α itself should be no lower than 1.0 nM and no higher than 5.0 nM.
In this assay, COS-7 cells are transiently transfected with the hFP recombinant plasmid using LipofectAMINE Reagent. Forty-eight hours later, the transfected cells are washed with Hank's Balanced Salt Solution (HBSS, without CaCl2, MgCl2, MgSO4, or phenol red). The cells are detached with versene, and HBSS is added. The mixture is centrifuged at 200 g for 10 minutes, at 4° C. to pellet the cells. The pellet is resuspended in Phosphate-Buffered Saline-EDTA buffer (PBS; 1 mM EDTA; pH 7.4; 4° C.). The cells are disrupted by nitrogen cavitation (Parr model 4639), at 800 psi, for 15 minutes at 4° C. The mixture is centrifuged at 1000 g for 10 minutes at 4° C. The supernatant is centrifuged at 100,000 g for 60 minutes at 4° C. The pellet is resuspended to 1 mg protein/mL TME buffer (50 mM Tris; 10 mM MgCl2; 1 mM EDTA; pH 6.0; 4° C.) based on protein levels measured using the Pierce BCA Protein Assay kit. The homogenate is mixed for 10 seconds using a Kinematica POLYTRON® (available from KINEMATICA AG, Luzernerstrasse 147A CH-6014 Littau, Switzerland). The membrane preparations are then stored at −80° C., until thawed for assay use.
The receptor competition binding assays are developed in a 96 well format. Each well contains […] of hFP membrane, 5 nM (3H) PGF2, and the various competing compounds in a total volume of […]. The plates are incubated at 23° C. for 1 hour. The incubation is terminated by rapid filtration using the Packard Filtermate 196 harvester through Packard UNIFILTER® GF/B filters (available from Packard Instrument Co., Inc. of Downers Grove Ill.) pre-wetted with TME buffer. The filter is washed four times with TME buffer. […] The plates are read on a Packard TOPCOUNT® Microplate Scintillation Counter (also available from Packard Instrument Co., Inc.)

T1 sequence (P43088 whole entry): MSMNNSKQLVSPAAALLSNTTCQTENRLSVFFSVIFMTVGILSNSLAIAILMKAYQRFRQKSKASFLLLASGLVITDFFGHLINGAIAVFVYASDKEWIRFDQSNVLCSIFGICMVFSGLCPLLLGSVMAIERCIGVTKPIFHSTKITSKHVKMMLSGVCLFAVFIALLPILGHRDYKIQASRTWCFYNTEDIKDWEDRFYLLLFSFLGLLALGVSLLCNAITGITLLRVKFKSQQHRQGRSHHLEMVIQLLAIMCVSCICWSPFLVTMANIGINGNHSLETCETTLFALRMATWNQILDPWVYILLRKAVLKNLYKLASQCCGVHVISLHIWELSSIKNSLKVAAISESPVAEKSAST

On to `CC(C)OC(=O)CCCCCC[C@@H]1[C@@H](CCC(O)CSc2ccccc2)[C@H](O)C[C@@H]1O` (stereo partly drawn) [Example 1], for which, in assay [1], the “hair growth (result in words)” value was “grew hair” and the “Average Grades, 23 Days” value was 0.4. For the same compound, in assay [1] (visual skin color grade 0 to 4, average of 7 mice after 25 days), the “Average Grades, 25 Days” value was found to be 0.1. For the same compound, the “Average Grades, 26 Days” value in assay [1] (visual skin color grade 0 to 4, average of 7 mice after 26 days) was 0.7.
On to `COC(=O)CCCCCC[C@@H]1[C@@H](CCC(O)CSc2ccccc2Br)[C@H](O)C[C@@H]1O` (stereo partly drawn) [Example 2], for which, in assay [1], the “hair growth (result in words)” value is “grew hair” and the “Average Grades, 23 Days” value is listed as 0.1.
For the compound `O=C(O)CCCCCC[C@@H]1[C@@H](CCC(O)CSc2cccc(F)c2)[C@H](O)C[C@@H]1O` (stereo partly drawn) [Example 3-1], in assay [2], the IC50 worked out at 0.007 µM.
Same read-out and setting: to `O=C(O)CCCCCC[C@@H]1[C@@H](CCC(O)CSc2ccccc2F)[C@H](O)C[C@@H]1O` (stereo partly drawn) [Example 3-2] belongs 0.01 µM; to `CC(O)(CC[C@@H]1[C@@H](CCCCCCC(=O)O)[C@@H](O)C[C@H]1O)CSc1ccccc1` (stereo partly drawn) [Example 3-3], 0.024 µM.
